# Laboratory results: US20190374506A1, “COMPOSITIONS AND METHODS FOR TREATING CANCER” (BETH ISREAL DEACONESS MEDICAL CENTER, priority 2016, published 2019)
# Experiments:
# Format in all cases: cell-based, human
# [1] = test system: PTEN subcellular localization in DU145 cells; assay: Confocal immunofluorescence of PTEN subcellular localization in DU145 cells; conditions: 20 μM I3C for 4 Days
# Procedure: FIG. 10D provides a panel of micrographs showing the effects of I3C on PTEN subcellular localization in DU145 cells. DU145 cells treated with 20 μM I3C for 4 Days. Confocal images of DU145 cells treated with/without I3C were stained with DAPI and the indicated antibodies. Bar, 20 μm. Whether targeting WWP1/NEDD4-1, thereby enhancing PTEN dimerization and function, could offer a unique opportunity to treat MYC-driven cancers was investigated. […] As there is no small pharmacological inhibitor currently available to suppress/inhibit WWP1 activity, Indole-3-Carbinol (I3C), a potential WWP1 inhibitor, which suppresses the WWP1 activity through binding to its HECT domain, was used. First, to assess the on-target effects of I3C towards WWP1, Wwp1^-/- MEFs were used. […] Additionally, two independent PTEN stably knocked-down cells were generated. […] PC3 and DU145 cells stably expressing the indicated constructs were plated on coverslip. The following day, cells were washed with ice-cold PBS, fixed in 4% paraformaldehyde, permeabilized with 0.02% Triton X-100, and then blocked with PBS supplemented with 20% goat serum. Cells were incubated with anti-PTEN antibody (6H2.1, 1:100) from Cascade Bioscience, diluted in PBS containing 10% goat serum overnight and then with Alexa488-conjugated secondary antibody together with 1 μg/ml of DAPI for 1 hour. Images were acquired with a […] […]
# LNCaP cells (PTEN-null) = assay: Cell growth, LNCaP cells
# Description: Whether targeting WWP1/NEDD4-1, thereby enhancing PTEN dimerization and function, could offer a unique opportunity to treat MYC-driven cancers was investigated. […] As there is no small pharmacological inhibitor currently available to suppress/inhibit WWP1 activity, Indole-3-Carbinol (I3C), a potential WWP1 inhibitor, which suppresses the WWP1 activity through binding to its HECT domain, was used. First, to assess the on-target effects of I3C towards WWP1, Wwp1^−/− MEFs were used. […] Additionally, two independent PTEN stably knocked-down cells were generated.
# [2] = test system: WWP1/NEDD4-1 E3 mediated PTEN K27-linked poly-ubiquitination; assay: In vivo ubiquitination assay (Ni-NTA pull down, western blot) in DU145 cells; conditions: 10 μM or 20 μM I3C for 4 Days
# Procedure: DU145 cells expressing indicated plasmids were treated with 10 μM or 20 μM of I3C for 4 Days. The ubiquitinated PTEN was pulled down under denaturing conditions by Ni-NTA agarose and analysed by the western blot. Whether targeting WWP1/NEDD4-1, thereby enhancing PTEN dimerization and function, could offer a unique opportunity to treat MYC-driven cancers was investigated. […] As there is no small pharmacological inhibitor currently available to suppress/inhibit WWP1 activity, Indole-3-Carbinol (I3C), a potential WWP1 inhibitor, which suppresses the WWP1 activity through binding to its HECT domain, was used. First, to assess the on-target effects of I3C towards WWP1, Wwp1^−/− MEFs were used. […] Additionally, two independent PTEN stably knocked-down cells were generated. […] To analyse in vivo ubiquitination of PTEN, cells were transfected with various constructs, together with His-Ubiquitin and Myc-PTEN. Cells were lysed by buffer A (6 M guanidine-HCl, Na2HPO4/NaH2PO4 [pH 8.0], and 10 mM imidazole), and lysates were incubated with Ni-NTA agarose for 1.5 hours at 4° C. The beads were washed once with buffer A, twice with buffer ANTI (1 vol buffer A: 3 vol buffer TI [25 mM Tris-HCl, pH 6.8, and 20 mM imidazole]), and three times with buffer TI, and then analysed by western blot. In all experiments, an equal amount of His-Ubiquitin expression was verified by western blot analysis.
structure (smiles),measurement,setting,value
"OCc1c[nH]c2ccccc12 [I3C, indole-3-carbinol]",PTEN plasma membrane localization,[1],induced its plasma membrane accumulation
same,cell growth,LNCaP cells (PTEN-null),only modestly suppressed cell growth
same,PTEN K27-linked poly-ubiquitination,[2],robustly diminished
